Data: US20260209297A1, “ANTIMICROBIAL PEPTIDES AND MODIFICATIONS THEREOF” (priority 2022, published 2026)
Values after ≈ are worked out from the molar mass of the structure shown. Positions of bridges follow the written chain, without caps; N, C: chain ends. Residues, ends and D or L forms follow the SMILES beside them.

Assays:
B. cinerea = assay: Semi-in planta gray mold assay on detached Nicotiana benthamiana leaves (drop inoculation); type: in vivo, Botrytis cinerea; conditions: for reducing gray mold disease symptoms (lesion sizes): detached N. benthamiana leaves, 1.5 μM, 3 μM and 6 μM, 48 h
Alternaria alternata = assay: 96-well plate MIC assay with resazurin viability; type: cell-based; conditions: Table 19; unit not given (peptide concentrations in μM)
Cercospora sojina = assay: 96-well plate MIC assay with resazurin viability; type: cell-based; conditions: Table 19; unit not given (peptide concentrations in μM)
[1] = test system: Colletotrichum gloeosporioides; assay: 96-well plate MIC assay with resazurin viability; type: cell-based; conditions: Table 19; unit not given (peptide concentrations in μM)
Botrytis cinerea T-4 = conditions: Table 18

SMILES	reducing gray mold disease symptoms (lesion sizes) (B. cinerea)	MIC Alternaria alternata (Alternaria alternata)	MIC Cercospora sojina (Cercospora sojina)	MIC Colletotrichum gloeosporioides [1]	MIC (μM) SFM (Botrytis cinerea T-4) [µM]	MIC (μM) (SFM + 2 mM CaCl2) (Botrytis cinerea T-4) [µM]	MIC (μM) (SFM + 100 mM NaCl) (Botrytis cinerea T-4) [µM]	reducing the symptoms of gray mold, comparison (B. cinerea; low concentrations of 1.5 μM and 3 μM, compared with GMA4C_V9)	MIC (μM) (SFM + 100 mM KCl) (Botrytis cinerea T-4) [µM]
CC[C@H](C)[C@@H]1NC(=O)[C@H](CCCNC(=N)N)NC(=O)[C@H]([C@@H](C)O)NC(=O)[C@H](Cc2ccccc2)NC(=O)[C@H](Cc2c[nH]c3ccccc23)NC(=O)[C@H](Cc2ccccc2)NC(=O)[C@H](CCCNC(=N)N)NC(=O)[C@H](CCCNC(=N)N)NC(=O)[C@H](CC(C)C)NC(=O)[C@H](Cc2ccccc2)NC(=O)CNC(=O)[C@H](CCCCN)NC(=O)[C@@H](NC(=O)[C@H](CCCNC(=N)N)NC(=O)CNC(=O)CN)CSSC[C@@H](C(N)=O)NC1=O [GMA4C_V9] (H-GGRCKGFLRRFWFTRIC-NH2; disulfide 4-17; N-terminus assumed)	effective	>12	6	>12	3 (≈ 6.3 µg/mL)	12	3	–	–
CC[C@H](C)[C@@H]1NC(=O)[C@H](CCCNC(=N)N)NC(=O)[C@H]([C@@H](C)O)NC(=O)[C@H](Cc2c[nH]c3ccccc23)NC(=O)[C@H](Cc2ccc(O)cc2)NC(=O)[C@H](Cc2c[nH]c3ccccc23)NC(=O)[C@H](CCCNC(=N)N)NC(=O)[C@H](CCCNC(=N)N)NC(=O)[C@H](CCCNC(=N)N)NC(=O)[C@H](Cc2ccccc2)NC(=O)CNC(=O)[C@H](CCCCN)NC(=O)[C@@H](NC(=O)[C@H](CCCNC(=N)N)NC(=O)CNC(=O)CN)CSSC[C@@H](C(N)=O)NC1=O [GMA4C_V10] (H-GGRCKGFRRRWYWTRIC-NH2; disulfide 4-17; N-terminus assumed)	effective	>12	6	>12	3 (≈ 6.6 µg/mL)	3	3	more effective	3 to 6
C[C@H](NC(=O)CN)C(=O)N[C@H]1CSSC[C@@H](C(N)=O)NC(=O)[C@H](CCCCN)NC(=O)[C@H](CCCCN)NC(=O)[C@H](Cc2ccc(O)cc2)NC(=O)[C@H](Cc2c[nH]c3ccccc23)NC(=O)[C@H](Cc2ccccc2)NC(=O)[C@H](Cc2c[nH]c3ccccc23)NC(=O)[C@H](C)NC(=O)[C@H](Cc2ccccc2)NC(=O)CNC(=O)[C@H](Cc2ccccc2)NC(=O)CNC(=O)[C@H](CCC(N)=O)NC(=O)[C@H](CCCNC(=N)N)NC(=O)[C@H](Cc2c[nH]cn2)NC1=O [GMA5CA_V3] (H-GACHRQGFGFAWFWYKKC-NH2; disulfide 3-18; N-terminus assumed)	–	3	6	>12	3 (≈ 6.57 µg/mL)	>12	>12	–	>12
C[C@H](NC(=O)CN)C(=O)N[C@H]1CSSC[C@@H](C(N)=O)NC(=O)[C@H](CCCCN)NC(=O)[C@H](CCCCN)NC(=O)[C@H](Cc2ccc(O)cc2)NC(=O)[C@H](Cc2ccccc2)NC(=O)[C@H](Cc2ccccc2)NC(=O)[C@H](Cc2ccccc2)NC(=O)[C@H](C)NC(=O)[C@H](Cc2ccccc2)NC(=O)CNC(=O)[C@H](Cc2ccccc2)NC(=O)CNC(=O)[C@H](CCC(N)=O)NC(=O)[C@H](CCCNC(=N)N)NC(=O)[C@H](Cc2c[nH]cn2)NC1=O [GMA5CA_V4] (H-GACHRQGFGFAFFFYKKC-NH2; disulfide 3-18; N-terminus assumed)	–	3	6	>12	3 (≈ 6.33 µg/mL)	>12	>12	–	>12
